Values quoted from earlier work in PMC8066102, “Metabolic Profiles of New Unsymmetrical Bisacridine Antitumor Agents in Electrochemical and Enzymatic Noncellular Systems and in Tumor Cells” (Pharmaceuticals, 2021).

Set-up: method as in PMID 2810109, PMID 12920162
Conditions: after UGT2B7 glucuronidation; cited from earlier work

Compound: CN1CC[C@]23c4c5ccc(O)c4O[C@H]2[C@@H](O[C@@H]2O[C@H](C(=O)O)[C@@H](O)[C@H](O)[C@H]2O)C=C[C@H]3[C@H]1C5 [morphine-6-glucuronide]
- analgesic activity relative to morphine: 650 fold
